# From US5770575A, “Nipecotic acid derivatives as antithrombotic compounds” (Ortho Pharmaceutical Corporation, priority 1995, dated 1998)
# Entries after “also recorded” stand apart in the source; their conditions may differ.
# What was measured:
# platelet aggregation = test: Ex vivo dog study: platelet aggregation and ATP release in whole blood and PRP; set-up: species or system mongrel dogs
# Protocol: Adult mongrel dogs (8-13 kg) were anesthetized with sodium pentobarbital (35 mg/kg, i.v.) and artificially respired. Arterial blood pressure and heart rate were measured using a Millar catheter-tip pressure transducer inserted in a femoral artery. Another Millar transducer was placed in the left ventricle (LV) via a carotid artery to measure LV end diastolic pressure and indices of myocardial contractility. A lead II electrocardiogram was recorded from limb electrodes. Catheters were placed in a femoral artery and vein to sample blood and infuse drugs, respectively. Responses were continuously monitored using a Modular Instruments data aquisition system.
# (§1) Arterial blood samples (5-9 ml) were withdrawn into tubes containing 3.8% sodium citrate to prepare platelet rich plasma (PRP) and to determine effects on coagulation parameters: prothrombin time (PT) and activated partial thromboplastin time (APTT). Separate blood samples (1.5 ml) were withdrawn in EDTA to determine hematocrit and cell counts (platelets, RBC's and white cells). Template bleeding times were obtained from the buccal surface using a symplate incision devise and Whatman filter paper.
# (§2) Aggregation of PRP was performed using a BioData aggregometer. Aggregation of whole blood used a Chronolog impedance aggregometer. PT and APTT were determined on either a BioData or ACL 3000+ coagulation analyser. Cells were counted with a Sysmex K-1000.
# (§3) Compound 17 was solubilized in a small volume of dimethylformamide (DMF) and diluted with saline to a final concentration of 10% DMF. Compound 17 was administered by the intravenous route with a Harvard infusion pump. Doses of 0.3, 1, 3, and 10 mg/kg were given in a cumulative fashion to each animal. Each dose was administered over a 15 min interval at a constant rate of 0.33 ml/min. Data were obtained after each dose and 30 and 60 min following the end of drug administration.
# gel-filtered platelets = test: In vitro inhibition of thrombin-induced gel-filtered platelet aggregation assay; assay type: cell-based; conditions: *Indicates IC50, read-out: Pl. Aggr. IC50
# Protocol: IN VITRO INHIBITION OF THROMBIN-INDUCED GEL-FILTERED PLATELET AGGREGATION ASSAY.
# The percentage of platelet aggregation is calculated as an increase in light transmission of compound treated platelet concentrate vs. control treated platelet concentrate. Blood is obtained from drug free, normal donors into tubes containing 0.13M sodium citrate. Platelet rich plasma (PRP) is collected by centrifugation of whole blood at 200×g for 10 min at 25° C. The PRP (5 mL) is gel filtered through Sepharose 2B (bed volume 50 mL), and the platelet count is adjusted to 2×10^7platelets per sample. The following constituents are added to a siliconized cuvette: concentrated platelet filtrate and Tyrode's buffer (0.1 4M NaCl, 0.0027M KCl, 0.01 2M NaHCO3, 0.76 mM Na2 HPO4, 0.0055M glucose, 2 mg/mL BSA and 5.0 mM HEPES @ pH 7.4) in an amount equal to 350 μl, 50 μl of 20 mM calcium and 50 μl of the test compound. Aggregation is monitored in a BIODATA aggregometerforthe 3 min following the addition of agonist (thrombin 50 μl of 1 unit/mL).
# GPIIb/IIIa = target: T1, GPIIb/IIIa (Homo sapiens, UniProt P05106+P08514); test: In vitro solid phase purified glycoprotein IIb/IIIa binding assay (biotinylated fibrinogen); conditions: Table I
# T1 sequence (P08514 32-887 limits assumed): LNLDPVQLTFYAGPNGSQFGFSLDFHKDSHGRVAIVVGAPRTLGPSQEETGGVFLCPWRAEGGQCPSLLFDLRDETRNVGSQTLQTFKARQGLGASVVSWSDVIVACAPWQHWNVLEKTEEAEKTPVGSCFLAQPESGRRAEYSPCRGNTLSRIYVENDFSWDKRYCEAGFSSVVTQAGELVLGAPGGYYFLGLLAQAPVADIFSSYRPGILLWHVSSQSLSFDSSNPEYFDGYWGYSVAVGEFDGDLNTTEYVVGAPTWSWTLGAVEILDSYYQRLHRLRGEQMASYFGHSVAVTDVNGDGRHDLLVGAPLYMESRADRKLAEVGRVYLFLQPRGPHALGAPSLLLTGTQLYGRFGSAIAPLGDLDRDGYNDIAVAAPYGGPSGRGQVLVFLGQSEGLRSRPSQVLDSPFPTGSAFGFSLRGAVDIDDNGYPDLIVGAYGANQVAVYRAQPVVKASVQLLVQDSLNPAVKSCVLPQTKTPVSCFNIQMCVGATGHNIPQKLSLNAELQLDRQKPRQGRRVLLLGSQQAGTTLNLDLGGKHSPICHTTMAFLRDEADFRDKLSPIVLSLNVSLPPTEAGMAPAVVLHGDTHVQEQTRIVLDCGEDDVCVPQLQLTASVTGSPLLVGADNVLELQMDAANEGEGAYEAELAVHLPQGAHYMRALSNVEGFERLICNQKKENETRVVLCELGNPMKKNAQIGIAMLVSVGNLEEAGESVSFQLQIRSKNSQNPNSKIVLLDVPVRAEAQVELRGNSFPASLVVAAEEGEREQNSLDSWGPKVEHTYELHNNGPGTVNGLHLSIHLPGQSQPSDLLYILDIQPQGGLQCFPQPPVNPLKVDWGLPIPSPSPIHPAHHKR
# T1 sequence (P05106 27-788): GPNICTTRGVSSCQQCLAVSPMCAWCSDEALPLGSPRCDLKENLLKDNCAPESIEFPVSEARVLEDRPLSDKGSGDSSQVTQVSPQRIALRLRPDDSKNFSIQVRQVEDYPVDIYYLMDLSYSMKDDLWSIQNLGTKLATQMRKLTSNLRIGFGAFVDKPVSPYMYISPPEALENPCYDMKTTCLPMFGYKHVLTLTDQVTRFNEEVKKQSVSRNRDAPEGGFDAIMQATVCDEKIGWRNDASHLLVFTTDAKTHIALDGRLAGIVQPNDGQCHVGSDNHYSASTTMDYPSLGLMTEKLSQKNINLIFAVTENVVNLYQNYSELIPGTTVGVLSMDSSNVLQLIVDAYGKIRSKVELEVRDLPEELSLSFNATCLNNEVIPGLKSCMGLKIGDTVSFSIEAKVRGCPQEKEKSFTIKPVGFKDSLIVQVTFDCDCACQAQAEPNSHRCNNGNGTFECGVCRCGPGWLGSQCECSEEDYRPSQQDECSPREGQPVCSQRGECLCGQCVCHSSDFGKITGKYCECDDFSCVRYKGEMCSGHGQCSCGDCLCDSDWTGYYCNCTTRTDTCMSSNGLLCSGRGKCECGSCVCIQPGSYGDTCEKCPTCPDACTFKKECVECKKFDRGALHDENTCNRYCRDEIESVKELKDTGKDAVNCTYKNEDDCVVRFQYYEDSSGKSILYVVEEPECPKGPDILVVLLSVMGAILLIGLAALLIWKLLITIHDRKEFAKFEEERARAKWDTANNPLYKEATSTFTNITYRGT
# Text: The compounds of the present invention interrupt binding of fibrinogen to platelet glycoprotein IIb/IIIa (GPIIb/IIIa) and thereby inhibit platelet aggregation. […] Because the final, common pathway in normal platelet aggregation is the binding of fibrinogen to activated, exposed GPIIb/IIIa, inhibition of this binding represents a plausible antithrombotic approach. The receptor is activated by stimuli such as ADP, collagen, and thrombin, exposing binding domains to two different peptide regions of fibrinogen: α-chain Arg-Gly-Asp (RGD) and γ-chain 400-411.
# IN VITRO SOLID PHASE PURIFIED GLYCOPROTEIN IIB/IIIA BINDING ASSAY.
# The plate is covered and incubated overnight at 4° C. The GPIIb/IIa solution is discarded and 150 μl of 5% BSA is added and incubated at RT for 1-3 h. The plate is washed extensively with modified Tyrodes buffer. Biotinylated fibrinogen (25 μl/well) at 2× final concentration is added to the wells that contain the test compounds (25 μl/well) at 2× final concentration. The plate is covered and incubated at RT for 2-4 h. Twenty minutes prior to incubation completion, one drop of Reagent A (Vecta Stain ABC Horse Radish Peroxidase kit, Vector Laboratories, Inc.) and one drop Reagent B are added with mixing to 5 mL modified Tyrodes buffer mix and let stand. The ligand solution is discarded and the plate washed (5×200 μl/well) with modified Tyrodes buffer. Vecta Stain HRP-Biotin-Avidin reagent (50 μl/well, as prepared above) is added and incubated at RT for 15 min. The Vecta Stain solution is discarded and the wells washed (5×200 μl/well) with modified Tyrodes buffer. […] The absorbance is read at 490 nm.
# [1] = set-up: species or system mongrel dogs; conditions: dog, in vivo, iv
# Protocol: as §1, §2, §3
structure (smiles),measurement,setting,value
"O=C(O)CCNC(=O)C1CCCN(C(=O)CCC2CCNCC2)C1 (stereo not drawn) [Compound 17, N-[3-(4-Piperidinepropionyl)]-Nip-β-Ala-OH]",platelet function began to recover,"platelet aggregation; PRP and whole blood, post treatment",30 to 60 min
same,Gamma thrombin induced aggregation of PRP,"platelet aggregation; PRP, doses of 3.0 mg/kg and above, iv",inhibited at doses of 3.0 mg/kg and above
same,"collagen stimulated platelet aggregation, PRP","platelet aggregation; PRP, marked activity at 0.3 mg/kg iv",marked activity at 0.3 mg/kg
same,duration of drug action / antiaggregatory effect,platelet aggregation; iv,relatively short duration of drug action
same,ex vivo platelet aggregation responses,"platelet aggregation; iv, 0.3-10 mg/kg cumulative",marked inhibition of ex vivo platelet aggregation responses; also recorded: broadly effective inhibitor of platelet aggregation ex vivo
same,collagen stimulated platelet ATP release,"platelet aggregation; whole blood, 10 mg/kg iv",marked inhibition
same,"collagen-stimulated aggregation, whole blood","platelet aggregation; whole blood, doses of 0.3-10 mg/kg iv",inhibited
same,IC50,gel-filtered platelets,130 nM
same,IC50,GPIIb/IIIa,3 nM
same,bleeding time at the higher doses,[1],increases in bleeding time at the higher doses
same,coagulation (PT or APTT),[1],No effects on coagulation
same,"platelet, white and RBC counts",[1],unchanged at any dose
